Converted amounts (≈) assume the structure as drawn. Where a name gives a salt, the structure may show the parent alone.
Key:
[1] = Solubility testing in water, SGF, FaSSIF, FeSSIF at 37° C.; assay type: physicochemical; settings: for Solubility / Solubility (mg/mL): 37° C.
Procedure: About 15 mg of sample was weighed into each sample vial and then 3.0 mL of water, simulated gastric fluid (SGF), Fasted State Simulated Intestinal Fluid (FaSSIF) or Fed State Simulated Intestinal Fluid (FeSSIF) media was added. Samples were prepared in triplicate for each media. The suspensions were kept shaking at 37° C. for up to 24 h. At 0.5, 2 and 24 h, suspensions were filtered and the filtrate was analyzed by HPLC.

[2] = test system: animal models of inflammatory bowel disease; settings: multiple animal models of inflammatory bowel disease; preclinical data, background; cited from earlier work
[3] = 7-day stability testing of solid forms (HPLC purity, XRPD); assay type: physicochemical
Procedure: About 10 mg of freebase Form I, HCl salt Form II, Succinate Form I and received HCl salt Form I were placed at 60° C./capped and 40° C./75% RH (open), respectively. Samples were prepared in duplicate for each condition. At day 0 and day 7, the samples were analyzed by HPLC and XRPD to check the purity and crystal form, respectively.

[4] = FaSSIF (pH of media 6.5), 0.5 h
[5] = FeSSIF (pH of media 5.0), 0.5 h
[6] = pH of sample in FaSSIF (pH of media 6.5), 0.5 h
[7] = pH of sample in FaSSIF (pH of media 6.5), 2 h
[8] = pH of sample in FaSSIF (pH of media 6.5), 24 h
[9] = pH of sample in FeSSIF (pH of media 5.0), 0.5 h
[10] = pH of sample in FeSSIF (pH of media 5.0), 2 h
[11] = pH of sample in FeSSIF (pH of media 5.0), 24 h
[12] = pH of sample in SGF (pH of media 1.2), 0.5 h
[13] = pH of sample in SGF (pH of media 1.2), 2 h
[14] = pH of sample in SGF (pH of media 1.2), 24 h
[15] = pH of sample in Water (pH of media 7.9), 0.5 h
[16] = pH of sample in Water (pH of media 7.9), 2 h
[17] = pH of sample in Water (pH of media 7.9), 24 h

NCc1ccc(C(=O)Nc2ccncc2F)cc1-c1cccc(C(=O)Nc2ccc(SC[C@H]3CCOC3=O)cc2)c1 (stereo in doubt) [HCl salt Form I]
Solubility [1, 4]: 23 µg/mL | Solubility ([1]; FaSSIF (pH of media 6.5), 2 h): 5 µg/mL | Solubility (mg/mL) ([1]; FaSSIF (pH of media 6.5), 24 h): <LOD | Solubility [1, 5]: 83 µg/mL | Solubility ([1]; FeSSIF (pH of media 5.0), 2 h): 91 µg/mL | Solubility ([1]; FeSSIF (pH of media 5.0), 24 h): 66 µg/mL | Solubility ([1]; SGF (pH of media 1.2), 0.5 h): 780 µg/mL | Solubility ([1]; SGF (pH of media 1.2), 2 h): 841 µg/mL | Solubility ([1]; SGF (pH of media 1.2), 24 h): 1355 µg/mL | Solubility ([1]; Water (pH of media 7.9), 0.5 h): 680 µg/mL | Solubility ([1]; Water (pH of media 7.9), 2 h): 771 µg/mL | Solubility ([1]; Water (pH of media 7.9), 24 h): 1411 µg/mL | pH [1, 6]: 6.4 | pH [1, 7]: 6.4 | pH [1, 8]: 6.4 | pH [1, 9]: 4.9 | pH [1, 10]: 4.9 | pH [1, 11]: 4.9 | pH [1, 12]: 1.4 | pH [1, 13]: 1.4 | pH [1, 14]: 1.4 | pH [1, 15]: 5.6 | pH [1, 16]: 5.7 | pH [1, 17]: 5.8

NCc1ccc(C(=O)Nc2ccncc2F)cc1-c1cccc(C(=O)Nc2ccc(SCC3CCOC3=O)cc2)c1 (stereo not drawn) [Compound A, 4-(aminomethyl)-N-(3-fluoropyridin-4-yl)-3-{3-[(4-{[(2-oxooxolan-3-yl)methyl]sulfanyl}phenyl)carbamoyl]phenyl}benzamide]
Anti-fibrotic therapeutic effects [2]: strong anti-fibrotic therapeutic effects | Stability (in words) ([3]; chemical stability of solid forms, comparison): low chemical stability

NCc1ccc(C(=O)Nc2ccncc2F)cc1-c1cccc(C(=O)Nc2ccc(SC[C@H]3CCOC3=O)cc2)c1 [Freebase Form I]
Solubility [1, 4]: 14 µg/mL (≈ 24.5 µM) | Solubility ([1]; FaSSIF (pH of media 6.5), 2 h): 6 µg/mL (≈ 10.5 µM) | Solubility ([1]; FaSSIF (pH of media 6.5), 24 h): 1 µg/mL (≈ 1.75 µM) | Solubility [1, 5]: 183 µg/mL (≈ 321 µM) | Solubility ([1]; FeSSIF (pH of media 5.0), 2 h): 126 µg/mL (≈ 221 µM) | Solubility ([1]; FeSSIF (pH of media 5.0), 24 h): 59 µg/mL (≈ 103 µM) | Solubility ([1]; SGF (pH of media 1.2), 0.5 h): ~5000 µg/mL (≈ 8760 µM) | Solubility ([1]; SGF (pH of media 1.2), 2 h): ~5000 µg/mL (≈ 8760 µM) | Solubility ([1]; SGF (pH of media 1.2), 24 h): ~5000 µg/mL (≈ 8760 µM) | Solubility (mg/mL) ([1]; Water (pH of media 7.9), 0.5 h): <LOD | Solubility (mg/mL) ([1]; Water (pH of media 7.9), 2 h): <LOD | Solubility (mg/mL) ([1]; Water (pH of media 7.9), 24 h): <LOD | pH [1, 6]: 6.4 | pH [1, 7]: 6.4 | pH [1, 8]: 6.5 | pH [1, 9]: 5.0 | pH [1, 10]: 5.0 | pH [1, 11]: 5.0 | pH [1, 12]: 1.2 | pH [1, 13]: 1.4 | pH [1, 14]: 1.4 | pH [1, 15]: 7.9 | pH [1, 16]: 7.6 | pH [1, 17]: 8.7 | Purity (area %) ([3]; Day 0, HPLC): 96.89 area % | Decrease in purity versus Day 0 ([3]; Day 7, 40° C./75% RH (open)): 3.0 area % | XRPD (crystal form) ([3]; Day 7, 40° C./75% RH (open)): No change | Purity (area %) ([3]; Day 7, 40° C./75% RH (open), HPLC): 93.87 area % | Decrease in purity versus Day 0 ([3]; Day 7, 60° C./capped): 1.9 area % | XRPD (crystal form) ([3]; Day 7, 60° C./capped): No change | Purity (area %) ([3]; Day 7, 60° C./capped, HPLC): 95.01 area %

From patent publication US20260078108A1, “SOLID FORMS OF A ROCK INHIBITOR” (REDX PHARMA PLC, priority 2022, published 2026)
